{"source": "paper PMC7663597", "about": "“Structure–Activity Relationship of Aloperine Derivatives as New Anti–Liver Fibrogenic Agents” (Molecules, 2020)", "key": {"[1]": {"tested_on": "COL1A1 mRNA", "assay": "RT-PCR of COL1A1 mRNA in LX-2 cells", "assay_type": "cell-based, human", "details": "24 h", "description": "In the absence or presence of TGF-β1 (2 ng/mL) treatment, LX-2 cells were treated with key compounds 4n and 4p at concentrations of 6 μM and 12 μM, or 4i at a concentration of 12 μM, respectively.\nLX-2 cells were laid on 6-well plate and cultured in DMEM supplemented with 10% fetal bovine serum (FBS) in a 5% CO2 atmosphere at 37 °C. And serum-free culture was required until the cells reached 90−95% confluence. […] Total RNA of the LX-2 cells was isolated using TRIzol reagent, purified using NucleoSpin RNA Clean-up. Reverse transcription was performed with Transcriptor first strand cDNA synthesis kit. Subsequently, the cDNA levels was determined by ABI 7500 Fast Real-Time PCR System using TaqMan probes of COL1A1, TGF-β1, α-SMA, and GAPDH (sequence not disclosed by ABI) and FastStart Universal Probe master mix (Roche, Indianapolis, IN, USA)."}, "[2]": {"assay": "in vivo", "details": "both sexes, Kunming, mouse, po", "description": "(§1) To evaluate the safety profiles of the key compounds 4i, 4n and 4p, an acute toxicity test was performed in Kunming mice. Compound 4i was given orally in a single-dosing experiment at 100, 300 and 400 mg kg^−1, while 4n at 300, 400, 500 mg kg^−1, and 4p at 200, 400, 500 mg kg^−1. The mice were closely monitored for 7 days.\n(§2) Male and Female Kunming mice with weight of 20.0 ±1.0 g were obtained from the Institute of Laboratory Animal Science (Beijing, China). Animals wer e cared according to the institutional guidelines of the Institute of Medicinal Biotechnology, CAMS&PUMC (IMB-20190610D3), and fed with regular rodent chow and housed in an air conditioned room. The mice were randomly divided into different groups with four male mice and four female mice each. Each compound was given orally in a single-dosing experiment, the dose of 4i was 100, 300 and 400 mg kg^−1, the dose of 4n was 300, 400, 500 mg kg^−1, the dose of 4p was 200, 400, 500 mg kg^−1 (ddH2O as control). The mice were closely monitored for 7 days. Body weight as well as survival was monitored."}, "[3]": {"tested_on": "Kunming mice", "assay": "in vivo", "details": "both, mouse, po, 7 days", "description": "as §1, §2"}, "[4]": {"tested_on": "TGF-β1 protein", "assay": "Western blot of TGF-β1 protein in LX-2 cells", "assay_type": "cell-based, human", "details": "24 h", "description": "At the meantime, the addition of TGF-β1 also stimulated the expression of TGF-β1 on protein level, as shown in Figure 3A–C and Supplementary Table S2.\n(§3) LX-2 cells were cultured as described above. Cells were washed with phosphate-buffered saline (PBS) and were resuspended by radioimmunoprecipitation assay (RIPA) lysis buffer for 30 min in 4 °C; the supernatant was collected after centrifugation at 12000 g for 15 min at 4 °C. Subsequently, equal amounts of protein were quantified with Bradford assay, separated using SDS-PAGE and transferred onto polyvinylidene difluoride membrane. The membranes were blocked with 5% milk in PBST for 1 h, and probed with specific primary antibodies overnight at room temperature. The membrane was washed three times by PBST, and probed with horseradish peroxidase-conjugated secondary antibodies and GAPDH. The proteins were visualized by chemiluminescence reagents. Antibodies used in western blot analysis were obtained from Abcam (Cambridge, UK): anti-collagen 1 (ab34710), anti-TGF beta 1 antibody (ab179695), anti-alpha smooth muscle actin (ab32575) and Cell Signaling Technology (Danvers, MA, USA): GAPDH (D16H11) Rabbit mAb (5174)."}, "[5]": {"tested_on": "COL1A1 promotor", "assay": "COL1A1 promotor luciferase reporter gene assay in TGF-β1-treated LX-2 cells", "assay_type": "cell-based, human", "details": "Homo sapiens; for inhibition at 40 µM / inhibition at 80 µM: LX-2, 24 h; for inhibition at 40 µM: 24 h with TGF-β1, read-out: Inhibition Percentage 40 μM (inhibition rate of COL1A1 promotor's activity); for inhibition at 80 µM: 24 h with TGF-β1, read-out: Inhibition Percentage 80 μM (inhibition rate of COL1A1 promotor's activity); for IC50: read-out: IC50 (concentration required to inhibit 50% of COL1A1 promotor's activity)", "description": "A single luciferase reporter gene detection model was applied to evaluate the inhibitory effects of all target compounds on the expression of COL1A1 promotor in human hepatic stellate LX-2 cells at the concentrations of 40 and 80 μM, taking EGCG as the positive control. The LX-2 cell lines were transfected with COL1A1 promotor luciferase plasmid pGL4.17-COL1A1P for 24 h, then simultaneously treated with TGF-β1 and a tested compound for 24 h.\nCells were maintained on Dulbecco’s Modified Eagle’s medium (DMEM), laid on 96-well plate. DMEM medium was supplemented with 10% fetal bovine serum (FBS) at 37 °C humidified atmosphere with 5% CO2. Furthermore, serum-free culture was required until the cells were confluent at 90−95%. 24 h later the cells were treated with a tested compound (40 and 80 μM) for 24 h. The COL1A1 promotor activity was detected by the Bright-Glo luciferase assay system. Alternatively, to test the acute effects of compound on luciferase activity, 24 h later the cells were lysed and the lysate was treated with a tested compound (80 μM) for 2 h, then the luciferase was detected by the Bright-Glo luciferase assay system (Promega, Madison, WI, USA)."}, "[6]": {"tested_on": "α-SMA protein", "assay": "Western blot of α-SMA protein in LX-2 cells", "assay_type": "cell-based, human", "details": "with TGF-β1, 6 and 12 μM, 24 h", "description": "Stellate cell activation is a key process for liver fibrogenesis, and α-SMA expression, induced by a stimulation of TGF-β1 or other factors, is considered a reliable marker of hepatic stellate cell activation and a key biomarker for liver fibrosis. Therefore, the expression of α-SMA was also investigated. As presented in Figure 3A–C and Supplementary Table S2, in our experiments, the addition of TGF-β1 stimulated the expression of α-SMA on protein level as expected.\nas §3, with “Antibodies used in western blot analysis were obtained from Abcam (Cambridge, UK): anti-collagen 1 (ab34710), anti-TGF beta 1 antibody (ab179695), anti-alpha smooth muscle actin (ab32575) and Cell Signaling Technology (Danvers, MA, USA): GAPDH (D16H11) Rabbit mAb (5174).” left out"}, "[7]": {"tested_on": "COL1A1 protein", "assay": "Western blot of COL1A1 protein in LX-2 cells", "assay_type": "cell-based", "details": "Homo sapiens, 24 h, read-out: Inhibition rate of COL1A1 protein; for inhibition at 6 µM: with TGF-β1, 6 μM; for inhibition at 12 µM: with TGF-β1, 12 μM", "description": "Then the anti-COL1A1 effects of 4n and 4p on protein level were evaluated by western blot assay.\nas §3"}, "[8]": {"details": "TGF-β1 (2 ng/mL) stimulation, 6 μM"}, "[9]": {"details": "TGF-β1 (2 ng/mL) stimulation, 12 μM"}}}
{"compound": "O=C(CN1CCCC2=C[C@H]3C[C@H](CN4CCCC[C@H]34)[C@@H]21)N(c1ccccc1)c1ccc2ccccc2c1", "note": "[4n, 12N-(N’-(Naphthalen-2-yl)-N’-phenyl)carbamoylmethyl aloperine]", "values": [{"measurement": "Inhibitory rate of COL1A1 transcription (mRNA)", "setting": "[1]; [8]", "result": 76.0, "unit": "%"}, {"measurement": "Inhibitory rate of COL1A1 transcription (mRNA)", "setting": "[1]; [9]", "result": 84.5, "unit": "%"}, {"measurement": "Inhibitory rate of COL1A1 transcription (mRNA)", "setting": "[1]; absence of TGF-β1, 6 μM", "result": 42, "unit": "%"}, {"measurement": "Inhibitory rate of COL1A1 transcription (mRNA)", "setting": "[1]; absence of TGF-β1, 12 μM", "result": 47, "unit": "%"}, {"measurement": "LD50 at 7 days", "setting": "[2]", "result": 500, "unit": "mg/kg"}, {"measurement": "median lethal dose (LD50)", "setting": "[3]", "result": 500, "unit": "mg/kg"}, {"measurement": "Inhibition rate of TGF-β1 protein expression", "setting": "[4]; with TGF-β1, 6 μM", "result": 14.6, "unit": "%"}, {"measurement": "Inhibition rate of TGF-β1 protein expression", "setting": "[4]; with TGF-β1, 12 μM", "result": 61.0, "unit": "%"}, {"measurement": "inhibition at 40 µM", "setting": "[5]", "result": "99.9 ± 0.1", "unit": "%"}, {"measurement": "inhibition at 80 µM", "setting": "[5]", "result": 100, "unit": "%"}, {"measurement": "IC50", "setting": "[5]", "result": "13.3 ± 0.5", "unit": "µM"}, {"measurement": "Inhibition of α-SMA expression on protein level", "setting": "[6]", "result": "dose-dependent inhibition"}, {"measurement": "inhibition at 6 µM", "setting": "[7]", "result": 31.8, "unit": "%"}, {"measurement": "inhibition at 12 µM", "setting": "[7]", "result": 76.5, "unit": "%"}]}
{"compound": "O=C(CN1CCCC2=C[C@H]3C[C@H](CN4CCCC[C@H]34)[C@@H]21)N1c2ccccc2Oc2ccccc21", "note": "[4p, 12N-N′-Phenoxazinylcarbamoylmethyl aloperine]", "values": [{"measurement": "Inhibitory rate of COL1A1 transcription (mRNA)", "setting": "[1]; [8]", "result": 99.5, "unit": "%"}, {"measurement": "Inhibitory rate of COL1A1 transcription (mRNA)", "setting": "[1]; [9]", "result": 102.9, "unit": "%"}, {"measurement": "Inhibitory rate of COL1A1 transcription (mRNA)", "setting": "[1]; absence of TGF-β1, 6 μM", "result": 38, "unit": "%"}, {"measurement": "Inhibitory rate of COL1A1 transcription (mRNA)", "setting": "[1]; absence of TGF-β1, 12 μM", "result": 42, "unit": "%"}, {"measurement": "LD50 at 7 days", "setting": "[2]", "result": 400, "unit": "mg/kg"}, {"measurement": "median lethal dose (LD50)", "setting": "[3]", "result": 400, "unit": "mg/kg"}, {"measurement": "Inhibition rate of TGF-β1 protein expression", "setting": "[4]; with TGF-β1, 6 μM", "result": 20.8, "unit": "%"}, {"measurement": "Inhibition rate of TGF-β1 protein expression", "setting": "[4]; with TGF-β1, 12 μM", "result": 135.4, "unit": "%"}, {"measurement": "inhibition at 40 µM", "setting": "[5]", "result": "72.2 ± 1.5", "unit": "%"}, {"measurement": "inhibition at 80 µM", "setting": "[5]", "result": "99.1 ± 1", "unit": "%"}, {"measurement": "IC50", "setting": "[5]", "result": "16.5 ± 0.4", "unit": "µM"}, {"measurement": "Inhibition of α-SMA expression on protein level", "setting": "[6]", "result": "dose-dependent inhibition"}, {"measurement": "inhibition at 6 µM", "setting": "[7]", "result": 22.7, "unit": "%"}, {"measurement": "inhibition at 12 µM", "setting": "[7]", "result": 79.2, "unit": "%"}]}
